Source: patent publication US7141680B2, “Aromatic compounds possessing antifungal or antibacterial activity” (Genelabs Technologies, Inc., priority 2002, dated 2006)
Where a name gives a salt, the structure may show the parent alone.

Columns and labels:
[1] = test system: bacteria; assay: Minimum inhibitory concentration (MIC) assay, bacteria; format: cell-based
Procedure: (§1) The assays described below were used to measure the minimum inhibitory concentration (MIC) of a compound necessary to inhibit visible growth of the organism tested. These assays are adapted from NCCLS protocols M7-A4 and M27-A (NCCLS vol 17:9 and vol 17:2) as modified by Sandven, S., Clin. Micro. (1999) 37:12, p. 3856–3859. MIC values for Aspergillus species were determined using NCCLS protocol M38-P.
(§2) All compounds were dissolved in 100% DMSO to a stock concentration of 10 mM and used fresh stock compounds in powder form were kept frozen until needed and used freshly. When used for test purposes, compounds were diluted in the appropriate media depending on the organism being tested.
(§3) For yeast and aspergillus species, seven 1:2 serial dilutions of compound in appropriate media buffered with MOPS at pH 7.0 were prepared such that the final starting test compound concentrations were 44.4 μM for yeast and 50 μM aspergillus species. For bacteria, dilutions were made in growth media used for the particular bacteria being tested.
Five well-separated colonies from a 24 h Sabouraud Dextrose plate incubated at 35° C. were picked and resuspended into 2 mL of normal saline. The O.D.530 was read and the culture was adjusted to 0.5 McFarland units with normal saline. A 1:2000 dilution was made with RPMI 1640 media buffered with MOPS at pH 7.0 and 100 μL of this inoculum preparation was added to an equal volume of test compound-containing media. 25 μL of the redox indicator Alamar Blue (Biosource International) was added to each well and the plates were incubated for 48 h at 35° C. Wells having yeast growth changed color from blue to pink.
Inoculums are made in the same manner as yeast except all dilutions are made in normal saline, with a final dilution of 1:200 and an inoculum of 10 μL.

[2] = test system: Aspergillus species; assay: Minimum inhibitory concentration (MIC) assay, filamentous fungi; format: cell-based; details: antifungal activity, lowest concentration at which 75% inhibition of growth is observed after 48 h
Procedure: as §1, §2, §3
Inoculums are made by incubating Aspergillus species for 7 days at 35° C. on potato dextrose agar slants. Slants are then covered with 1.0 mL of 0.85% saline, one drop of Tween 20 is added and colonies are teased with a sterile transfer loop to create a suspension which is allowed to sit for 5 min so heavier particles can drop out. The upper suspension is separated and adjusted to an optical density of 0.09 to 0.11. The resulting suspension is diluted 1:50, which yields 2× the final inoculum needed. Micro dilution trays are prepared as with yeast and incubated for 48 h at 35° C. For our purposes the MIC is defined as the lowest compound concentration at which 75% inhibition of growth is observed after 48 h.

## N=C(N)NCCNC(=O)c1cc2cc(NC(=O)c3ccc4[nH]c(C(=O)NCCNC(=N)N)cc4c3)ccc2[nH]1 [Compound 10, 1H-Indole-2,5-dicarboxylic acid 2-[(2-gutanidino-ethyl)-amide] 5-{[2-(2-guanidino-ethylcarbamoyl)-1H-indol-5-yl]-amide}]
[1]
  MIC: ≤ 45.5 µM
[2]
  MIC: ≤ 50 µM

## N=C(N)NCC1CCC(CNC(=O)c2cc3cc(NC(=O)c4ccc5[nH]c(C(=O)NCC6CCC(CNC(=N)N)CC6)cc5c4)ccc3[nH]2)CC1 (centres unmarked) [Compound 18, 1H-Indole-2,5-dicarboxylic acid 2-[(4-guanidinomethyl-cyclohexylmethyl)-amide] 5-({2-[(4-guanidinomethyl-cyclohexylmethyl)-carbamoyl}-1H-indol-5-yl}-amide)]
[1]
  MIC: ≤ 45.5 µM
[2]
  MIC: ≤ 50 µM

## N=C(N)NCC(O)CNC(=O)c1cc2cc(NC(=O)c3ccc4[nH]c(C(=O)NCC(O)CNC(=N)N)cc4c3)ccc2[nH]1 (centres unmarked) [Compound 19, 1H-Indole-2,5-dicarboxylic acid 2-[(3-guanidino-2-hydroxy-propyl)-amide] 5-{[2-(3-guanidino-2-hydroxy-propylcarbamoyl)-1H-indol-5-yl]-amide}]
[1]
  MIC: ≤ 45.5 µM
[2]
  MIC: ≤ 50 µM

## N=C(N)NCCCCCNC(=O)c1cc2cc(NC(=O)c3ccc4[nH]c(C(=O)NCCCCCNC(=N)N)cc4c3)ccc2[nH]1 [Compound 20, 1H-Indole-2,5-dicarboxylic acid 2-[(5-guanidino-pentyl)-amide] 5-{[2-(5-guanidino-pentylcarbanzoyl)-1H-indol-5-yl]-amide}]
[1]
  MIC: ≤ 45.5 µM
[2]
  MIC: ≤ 50 µM

## N=C(N)NC1CCC(NC(=O)c2cc3cc(NC(=O)c4ccc5[nH]c(C(=O)NC6CCC(NC(=N)N)CC6)cc5c4)ccc3[nH]2)CC1 (centres unmarked) [Compound 21, 1H-Indole-2,5-dicarboxylic acid 2-[(4-guanidino-cyclohexyl)-amide] 5-{[2-(4-guaizidino-cyclohexylcarbamoyl)-1H-indol-5-yl]-amide}]
[1]
  MIC: ≤ 45.5 µM
[2]
  MIC: ≤ 50 µM

## N=C(N)NCc1ccc(CNC(=O)c2cc3cc(NC(=O)c4ccc5[nH]c(C(=O)NCc6ccc(CNC(=N)N)cc6)cc5c4)ccc3[nH]2)cc1 [Compound 22, 1H-Indole-2,5-dicarboxylic acid 2-(4-guanidinomethyl-benzylamide) 5-{[2-(4-guanidinomethyl-benzylcarbamoyl)-1H-indol-5-yl]-amide}]
[1]
  MIC: ≤ 45.5 µM
[2]
  MIC: ≤ 50 µM

## CC(=N)NCC1CCC(CNC(=O)c2cc3cc(NC(=O)c4ccc5[nH]c(C(=O)NCC6CCC(CNC(C)=N)CC6)cc5c4)ccc3[nH]2)CC1 (centres unmarked) [Compound 23, 1H-Indole-2,5-dicarboxylic acid 2-{[4-(acetimidoylamino-methyl)-cyclohexylmethyl]-amide} 5-[(2-{[4-(acetimidoylamino-methyl)-cyclohexylmethyl]-carbamoyl}-1H-indol-5-yl)-amide]]
[1]
  MIC: ≤ 45.5 µM
[2]
  MIC: ≤ 50 µM

## N=C(N)NCC1CCCC(CNC(=O)c2cc3cc(NC(=O)c4ccc5[nH]c(C(=O)NCC6CCCC(CNC(=N)N)C6)cc5c4)ccc3[nH]2)C1 (centres unmarked) [Compound 24, 1H-Indole-2,5-dicarboxylic acid 2-[(3-guanidinomethyl-cyclohexylmethyl)-amide] 5-({2-[(3-guanidinomethyl-cyclohexylmethyl)-carbamoyl}-1H-indol-5-yl}-amide)]
[1]
  MIC: ≤ 45.5 µM
[2]
  MIC: ≤ 50 µM

## N=C(N)NCc1cccc(CNC(=O)c2cc3cc(NC(=O)c4ccc5[nH]c(C(=O)NCc6cccc(CNC(=N)N)c6)cc5c4)ccc3[nH]2)c1 [Compound 25, 1H-Indole-2,5-dicarboxylic acid 2-(3-guanidinomethyl-benzylamide) 5-{[2-(3-guanidinomethyl-benzylcarbamoyl)-1H-indol-5-yl]-amide}]
[1]
  MIC: ≤ 45.5 µM
[2]
  MIC: ≤ 50 µM

## CC(C)Cn1cc(NC(=O)c2ccc3[nH]c(C(=O)NCCNC(=N)N)cc3c2)cc1C(=O)NCCNC(=N)N [Compound 29, 1H-indole-2,5-dicarboxylic acid 2-[(2-guanidino-ethyl)-amide] 5-{[5-(2-guanidino-ethylcarbamoyl)-1-isobutyl-1H-pyrrol-3-yl]-amide}]
[1]
  MIC: ≤ 45.5 µM

## N=C(N)NCCNC(=O)c1ccc2[nH]c(C(=O)Nc3ccc4cc(C(=O)NCCNC(=N)N)[nH]c4c3)cc2c1 [Compound 47, 1H-Indole-2,5-dicarboxylic acid 5-[(2-guanidino-ethyl)-amide] 2-{[2-(2-guanidino-ethylcarbamoyl)-1H-indol-6-yl]-amide}]
[1]
  MIC: ≤ 45.5 µM
[2]
  MIC: ≤ 50 µM

## CNC(=N)NCCNC(=O)c1ccc2[nH]c(C(=O)Nc3ccc4cc(C(=O)NCCNC(=N)NC)[nH]c4c3)cc2c1 [Compound 48, 1H-Indole-2,5-dicarboxylic acid 5-{[2-(N′-methyl-guanidino)-ethyl]-amide} 2-({2-[2-(N′methyl-guanidino)-ethylcarbamoyl]-1H-indol-6-yl}-amide)]
[1]
  MIC: ≤ 45.5 µM
[2]
  MIC: ≤ 50 µM

## O=C(NCCNC1=NCCN1)c1ccc2[nH]c(C(=O)Nc3ccc4cc(C(=O)NCCNC5=NCCN5)[nH]c4c3)cc2c1 [Compound 50, 1H-Indole-2,5-dicarboxylic acid 5-{[2-(4,5-dihydro-1H-imidazol-2-ylamino)-ethyl]amide} 2-({2-[2-(4,5-dihydro-1H-imidazol-2-ylamino)-ethylcarbamoyl]-1H-indol-6-yl}-amide)]
[1]
  MIC: ≤ 45.5 µM
[2]
  MIC: ≤ 50 µM

## N=C(N)NCCCNC(=O)c1ccc2[nH]c(C(=O)Nc3ccc4cc(C(=O)NCCNC(=N)N)[nH]c4c3)cc2c1 [Compound 52, 1H-Indole-2,5-dicarboxylic acid 2-{[2-(2-guanidinoethylcarbamoyl)-1H-indol-6-yl]amide} 5-[(3-guanidinopropyl)amide]dihydrochloride]
[1]
  MIC: ≤ 45.5 µM
[2]
  MIC: ≤ 50 µM

## C/N=C(\N)NCCCNC(=O)c1ccc2[nH]c(C(=O)Nc3ccc4cc(C(=O)NCCN/C(N)=N/C)[nH]c4c3)cc2c1 [Compound 53, 1H-Indole-2,5-dicarboxylic acid 2-({2-[2-(N′-methylguanidino)ethylcarbamoyl]-1H-indole-6-yl}amide) 5-{[3-(N′-methylguanidino)propyl]amide}dihydrochloride]
[1]
  MIC: ≤ 45.5 µM
[2]
  MIC: ≤ 50 µM

## C/N=C(\NC)NCCCNC(=O)c1ccc2[nH]c(C(=O)Nc3ccc4cc(C(=O)NCCN/C(=N/C)NC)[nH]c4c3)cc2c1 [Compound 54, 1H-Indole-2,5-dicarboxylic acid 2-({2-[2-(N′,N″-dimethylguanidino)ethylcarbamoyl]-1H-indole-6-yl}amide) 5-{[3-(N′,N″-dimethylguanidino)propyl]amide}dihydrochloride]
[1]
  MIC: ≤ 45.5 µM
[2]
  MIC: ≤ 50 µM

## CNC(=N)NCCNC(=O)c1ccc2[nH]c(C(=O)Nc3ccc4[nH]c(C(=O)NCCNC(=N)NC)cc4c3)cc2c1 [Compound 55]
[1]
  MIC: ≤ 45.5 µM
[2]
  MIC: ≤ 50 µM

## N=C(N)NCCC[C@H](N)C(=O)NCCCNC(=O)c1cc2ccc(NC(=O)c3cc4cc(C(=O)NCCNC(=O)[C@@H](N)CCCNC(=N)N)ccc4[nH]3)cc2[nH]1 [Compound 66, 1H-Indole-2,5-dicarboxylic acid 5-{[2-(2-amino-5-guanidino-pentanoylamino)-ethyl]-amide} 2-({2-[3-(2-amino-5-guanidino-pentanoylamino)-propylcarbamoyl]-1H-indol-6-yl}-amide)]
[1]
  MIC: ≤ 45.5 µM

## C/N=C(/NCCNC(=O)c1ccc2[nH]c(C(=O)Nc3ccc4[nH]c(C(=O)NCCN/C(=N/C)SC)cc4c3)cc2c1)SC [Compound 90, 1H-Indole-2,5-dicarboxylic acid 5-{[2-(2,3-dimethylisothioureido)ethyl]amide} 2-({2-[2-(2,3-dimethylisothioureido)ethylcarbamoyl]-1H-indol-5-yl}amide)dihydrochloride]
[1]
  MIC: ≤ 45.5 µM

## CC(C)(C)OC(=O)NCCNC(=O)c1cc2cc(NC(=O)c3cc4cc(N)ccc4[nH]3)ccc2[nH]1 [Compound 107, [2-({5-[(5-Amino-1H-indole-2-carbonyl)-amino]-1H-indole-2-carbonyl}-amino)-ethyl]-carbamic acid tert-butyl ester]
[1]
  MIC: ≤ 45.5 µM

## CN(C)CCNC(=O)c1cc2ccc(NC(=O)c3cc4cc(C(=O)NCCNC(=N)N)ccc4[nH]3)cc2[nH]1 [Compound 183, 1H-Indole-2,5-dicarboxylic acid 2-{[2-(2-dimethylaminoethylcarbamoyl)-1H-indol-6-yl]amide} 5-[(2-guanidinoethyl)amide]]
[2]
  MIC: ≤ 50 µM

## N#C/N=C(/N)NCCNC(=O)c1cc2ccc(NC(=O)c3cc4cc(C(=O)NCCNC(=N)N)ccc4[nH]3)cc2[nH]1 [Compound 184, 1H-Indole-2,5-dicarboxylic acid 5-{[2-(guanidino)ethyl]amide} 2-({2-[2-(N′-cyanoguanidino)ethylcarbamoyl]-1H-indol-6-yl}amide)]
[2]
  MIC: ≤ 50 µM
